Earlier results as cited in patent US6579851B2, “Effects of glucagon-like peptide-1 (7-36) on antro-pyloro-duodenal motility” (Amylin Pharmaceuticals, Inc., priority 2000, dated 2003).

How the values were obtained:
[1] = in vivo; cited from earlier work
[2] = test system: gastroduodenal motility; conditions: cited from earlier work

Glucagon
Dose at which side effects (nausea and vomiting) can appear [1]: 1 mg
Effect on contractions in the antrum ([2]; doses as high as 2 mg): does not reduce contractions in the antrum
Minimally effective dose for reduction in gastroduodenal motility ([2]; in vivo): 0.5 mg
